Reference: patent US20240417410A1, “TRICYCLIC COMPOUNDS FOR THE TREATMENT OF CANCER” (Hoffmann-La Roche Inc., priority 2023, published 2024)

Tests used:
[1] = test system: phosphorylation of ERK, KRAS G12V in SW620; assay: pERK inhibition assay; format: cell-based; conditions: Homo sapiens, SW-620, 4 h, SW620 cells
Outline: (§1)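 NCI-H358 (KRAS G12C), AGS (G12D) and SW620 (G12V) cells plated overnight, then treated with compound for 4 h in 0.5% DMSO. After fixing and methanol permeabilisation, phospho-ERK was detected by in-cell ELISA (HRP/TMB, OD450). IC50 from a 4-parameter sigmoidal fit.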

[2] = test system: phosphorylation of ERK, KRAS G12C in NCI-H358 cells; assay: pERK inhibition assay; format: cell-based; conditions: Homo sapiens, NCI-H358, 4 h
Outline: as §1

[3] = test system: phosphorylation of ERK, KRAS G12D in AGS cells; assay: pERK inhibition assay; format: cell-based; conditions: Homo sapiens, AGS, 4 h
Outline: as §1

KRAS G12C-BRAF complex = KRAS G12C-BRAF complex (Homo sapiens (Human), UniProt P01116+P62937, G12C); assay: KRAS-BRAF with CYPA (500 nM) interaction assay (TR-FRET, Example 136); format: biochemical; conditions: KRAS G12C-BRAF disruption
[4] = test system: NCI-H358 cells (KRAS G12C); assay: Cell viability assay (Cell Counting Kit-8, 3-day); format: cell-based, human; conditions: Homo sapiens, NCI-H358, 72 h, NCI-H358, 72 hrs incubation
Outline: (§2)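 Seed NCI-H358 5,000/well, AGS and SW620 2,000/well; overnight. Compound, 0.5% DMSO final, 72 hrs. CCK-8 2 hrs, OD450–OD650. IC50: 4-parameter fit.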

AGS cells (KRAS G12D) = assay: Cell viability assay (Cell Counting Kit-8, 3-day); format: cell-based, human; conditions: Homo sapiens, 72 h, 72 hrs incubation
Outline: as §2

SW620 cells (KRAS G12V) = assay: Cell viability assay (Cell Counting Kit-8, 3-day); format: cell-based, human; conditions: Homo sapiens, SW-620; SW620, 72 hrs incubation
Outline: as §2

KRAS G12C-BRAF complex, sequence (P01116-2 other isoform, or with tags, fused parts or gaps G12C): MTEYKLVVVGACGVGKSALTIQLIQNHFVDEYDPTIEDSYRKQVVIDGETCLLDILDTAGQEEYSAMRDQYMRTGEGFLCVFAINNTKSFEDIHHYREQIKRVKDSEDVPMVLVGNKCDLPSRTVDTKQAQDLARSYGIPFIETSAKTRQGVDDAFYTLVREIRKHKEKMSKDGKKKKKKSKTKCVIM
KRAS G12C-BRAF complex, sequence (P62937 whole entry): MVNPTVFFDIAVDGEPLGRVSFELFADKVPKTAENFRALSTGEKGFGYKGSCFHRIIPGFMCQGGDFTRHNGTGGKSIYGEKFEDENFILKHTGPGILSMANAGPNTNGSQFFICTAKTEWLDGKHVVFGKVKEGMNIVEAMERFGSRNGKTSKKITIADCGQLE

Row | Structure (SMILES) | IC50 [1] | IC50 [2] | IC50 [3] | IC50 (KRAS G12C-BRAF complex) | IC50 [4] | IC50 (AGS cells (KRAS G12D)) | IC50 (SW620 cells (KRAS G12V))
1 | CO[C@@H](C)c1ncc(N2CCN(C)CC2)cc1-c1c2c3cc(cc4c3n1CCO4)-c1csc(n1)C[C@H](NC(=O)C1(C)CC1C)C(=O)N1CCC[C@H](N1)C(=O)OCC(C)(C)C2 (stereo partly drawn) [Example 55, N-[(7S,13S)-(20M)-20-[2-[(1S)-1-methoxyethyl]-5-(4-methylpiperazin-1-yl)-3-pyridyl]-17,17-dimethyl-8,14-dioxo-15,24-dioxa-4-thia-9,21,30,31-tetrazahexacyclo[23.3.1.1^2,5.1^9,13.0^19,27.0^21,26]hentriaconta-1 (29),2,5 (31), 19,25,27-hexaen-7-yl]-1,2-dimethyl-cyclopropanecarboxamide] | 3.1 nM | 4.9 nM | 18.1 nM | 23.6 nM | 48.3 nM | 69.1 nM | 5.6 nM
2 | CO[C@@H](C)c1ncc(N2CCN(C)CC2)cc1-c1c2c3cc(cc4c3n1CCC4)-c1csc(n1)C[C@H](NC(=O)[C@@H]1C[C@H]1c1ncccn1)C(=O)N1CCC[C@H](N1)C(=O)OCC(C)(C)C2 (atropisomer, axis not shown) [Example 81, (1R,2R)-N-[(7S,13S)-20-[2-[(1S)-1-methoxyethyl]-5-(4-methylpiperazin-1-yl)-3-pyridyl]-17,17-dimethyl-8,14-dioxo-15-oxa-4-thia-9,21,30,31-tetrazahexacyclo[23.3.1.1^2,5.1^9,13.0^19,27.0^21,26]hentriaconta-1 (28),2,5 (31),19,25 (29),26-hexaen-7-yl]-2-pyrimidin-2-yl-cyclopropanecarboxamide] | 1.2 nM | 1.6 nM | 6.5 nM | 30.5 nM | 5.3 nM | 23.4 nM | 0.8 nM
3 | CO[C@@H](C)c1ncc(N2CCN(C)CC2)cc1-c1c2c3cc(cc4c3n1CCO4)-c1csc(n1)C[C@H](NC(=O)C1(C)CC1(F)F)C(=O)N1CCC[C@H](N1)C(=O)OCC(C)(C)C2 (stereo partly drawn) [Example 54, 2,2-difluoro-N-[(7S,13S)-(20M)-20-[2-[(1S)-1-methoxyethyl]-5-(4-methylpiperazin-1-yl)-3-pyridyl]-17,17-dimethyl-8,14-dioxo-15,24-dioxa-4-thia-9,21,30,31-tetrazahexacyclo[23.3.1.1^2,5.1^9,13.0^19,27.0^21,26]hentriaconta-1 (29),2,5 (31), 19,25,27-hexaen-7-yl]-1-methyl-cyclopropanecarboxamide] | 1 nM | 1.3 nM | 8.8 nM | 23.3 nM | 12.1 nM | 36.8 nM | 3 nM
4 | CO[C@@H](C)c1ncc(N2CCN(C3CC3)CC2)cc1-c1c2c3cc(cc4c3n1CCO4)-c1csc(n1)C[C@H](NC(=O)[C@H]1[C@H](C)[C@@H]1C)C(=O)N1CCC[C@H](N1)C(=O)OCC(C)(C)C2 (atropisomer, axis not shown; (M)) [Example 106, (1r,2R,3S)-N-[(7S,13S)-(20M)-20-[5-(4-cyclopropylpiperazin-1-yl)-2-[(1S)-1-methoxyethyl]-3-pyridyl]-17,17-dimethyl-8,14-dioxo-15,24-dioxa-4-thia-9,21,30,31-tetrazahexacyclo[23.3.1.1^2,5.1^9,13.0^19,27.0^21,26]hentriaconta-1 (28),2,5 (31),19,25 (29),26-hexaen-7-yl]-2,3-dimethyl-cyclopropanecarboxamide] | 0.4 nM | 1.1 nM | 3.1 nM | 10.8 nM | 4.4 nM | 8.7 nM | 0.4 nM
5 | CO[C@@H](C)c1ncc(N2CCOCC2)cc1-c1c2c3cc(cc4c3n1CC(F)(F)C4)-c1csc(n1)C[C@H](NC(=O)[C@H]1C[C@@H]1C)C(=O)N1CCC[C@H](N1)C(=O)OCC(C)(C)C2 (atropisomer, axis not shown; (M)) [Example 75, (1S,2S)-N-[(7S,13S)-23,23-difluoro-(20M)-20-[2-[(1S)-1-methoxyethyl]-5-morpholino-3-pyridyl]-17,17-dimethyl-8,14-dioxo-15-oxa-4-thia-9,21,30,31-tetrazahexacyclo[23.3.1.1^2,5.1^9,13.0^19,27.0^21,26]hentriaconta-1 (28),2,5 (31),19,25 (29),26-hexaen-7-yl]-2-methyl-cyclopropanecarboxamide] | 2.6 nM | 4.9 nM | 23.6 nM | 29.7 nM | 20.2 nM | 58.7 nM | 3.6 nM
6 | CO[C@@H](C)c1ncc(N2CCOCC2)cc1-c1c2c3cc(cc4c3n1C[C@@H](O)C4)-c1csc(n1)C[C@H](NC(=O)[C@H]1[C@H](C)[C@@H]1C)C(=O)N1CCC[C@H](N1)C(=O)OCC(C)(C)C2 (atropisomer, axis not shown; (M)) [Example 107, (1r,2R,3S)-N-[(7S,13S,23S)-23-hydroxy-(20M)-20-[2-[(1S)-1-methoxyethyl]-5-morpholino-3-pyridyl]-17,17-dimethyl-8,14-dioxo-15-oxa-4-thia-9,21,30,31-tetrazahexacyclo[23.3.1.1^2,5.1^9,13.0^19,27.0^21,26]hentriaconta-1 (28),2,5 (31),19,25 (29),26-hexaen-7-yl]-2,3-dimethyl-cyclopropanecarboxamide] | 1.5 nM | 2.7 nM | 7.4 nM | 47.6 nM | 8.4 nM | 5.4 nM | 1.2 nM
7 | CO[C@@H](C)c1ncc(N2CCOCC2)cc1-c1c2c3cc(cc4c3n1CCO4)-c1csc(n1)C[C@H](NC(=O)[C@H]1C[C@@H]1C)C(=O)N1CCC[C@H](N1)C(=O)OCC(C)(C)C2 (atropisomer, axis not shown; (M)) [Example 8, (1S,2S)-N-[(7S,13S)-(20M)-20-[2-[(1S)-1-methoxyethyl]-5-morpholino-3-pyridyl]-17,17-dimethyl-8,14-dioxo-15,24-dioxa-4-thia-9,21,30,31-tetrazahexacyclo[23.3.1.1^2,5.1^9,13.0^19,27.0^21,26]hentriaconta-1 (28),2,5 (31), 19,25 (29),26-hexaen-7-yl]-2-methyl-cyclopropanecarboxamide] | 1.2 nM | 2.6 nM | 7.1 nM | 23.7 nM | 5.9 nM | 18.7 nM | 1.1 nM
8 | CO[C@@H](C)c1ncc(N2CCN3CCCC[C@@H]3C2)cc1-c1c2c3cc(cc4c3n1CCC4)-c1csc(n1)C[C@H](NC(=O)[C@H]1C[C@@H]1c1cncnc1)C(=O)N1CCC[C@H](N1)C(=O)OCC(C)(C)C2 (atropisomer, axis not shown; (M)) [Example 103, (1S,2S)-N-[(7S,13S)-(20M)-20-[5-[(9αR)-1,3,4,6,7,8,9,9a-octahydropyrido[1,2-a]pyrazin-2-yl]-2-[(1S)-1-methoxyethyl]-3-pyridyl]-17,17-dimethyl-8,14-dioxo-15-oxa-4-thia-9,21,30,31-tetrazahexacyclo[23.3.1.1^2,5.1^9,13.0^19,27.0^21,26]hentriaconta-1 (28),2,5 (31),19,25 (29),26-hexaen-7-yl]-2-pyrimidin-5-yl-cyclopropanecarboxamide] | 0.7 nM | 0.7 nM | 2.4 nM | 6 nM | 1.3 nM | 5.2 nM | 0.4 nM
9 | CO[C@@H](C)c1ncc(N2CCN(C)CC2)cc1-c1c2c3cc(cc4c3n1CCC4)-c1csc(n1)C[C@H](NC(=O)[C@H]1C[C@@H]1c1ccccc1)C(=O)N1CCC[C@H](N1)C(=O)OCC(C)(C)C2 (atropisomer, axis not shown; (M)) [Example 22, (1S,2S)-N-[(7S,13S)-(20M)-20-[2-[(1S)-1-methoxyethyl]-5-(4-methylpiperazin-1-yl)-3-pyridyl]-17,17-dimethyl-8,14-dioxo-15-oxa-4-thia-9,21,30,31-tetrazahexacyclo[23.3.1.1^2,5.1^9,13.0^19,27.0^21,26]hentriaconta-1 (28),2,5 (31), 19,25 (29),26-hexaen-7-yl]-2-phenyl-cyclopropanecarboxamide] | 0.7 nM | 0.6 nM | 3.8 nM | 6.4 nM | 3.1 nM | 14.2 nM | 0.8 nM
10 | CO[C@@H](C)c1ncc(N2CCN3CCOC[C@@H]3C2)cc1-c1c2c3cc(cc4c3n1CCC4)-c1csc(n1)C[C@H](NC(=O)[C@H]1[C@@H]3COC[C@@H]31)C(=O)N1CCC[C@H](N1)C(=O)OCC(C)(C)C2 (atropisomer, axis not shown; (M)) [Example 40, (1S,5R,6r)-N-[(7S,13S)-(20M)-20-[5-[(9αS)-3,4,6,7,9,9a-hexahydro-1H-pyrazino[2,1-c][1,4]oxazin-8-yl]-2-[(1S)-1-methoxyethyl]-3-pyridyl]-17,17-dimethyl-8,14-dioxo-15-oxa-4-thia-9,21,30,31-tetrazahexacyclo[23.3.1.1^2,5.1^9,13.0^19,27.0^21,26]hentriaconta-1 (28),2,5 (31),19,25 (29),26-hexaen-7-yl]-3-oxabicyclo[3.1.0]hexane-6-carboxamide] | 0.4 nM | 0.6 nM | 5.6 nM | 13 nM | 3 nM | 11.8 nM | 0.8 nM
